According to ChEMBL document CHEMBL1817595, “Design, synthesis, biological evaluation and X-ray crystal structure of novel classical 6,5,6-tricyclic benzo[4,5]thieno[2,3-d]pyrimidines as dual thymidylate synthase and dihydrofolate reductase inhibitors” (Bioorg Med Chem, 2011):

How the values were obtained:
[1] = target: T1, Dihydrofolate reductase (Escherichia coli, UniProt P0ABQ4); assay: Inhibition of Escherichia coli DHFR by spectrophotometry
T1 sequence (P0ABQ4 whole entry): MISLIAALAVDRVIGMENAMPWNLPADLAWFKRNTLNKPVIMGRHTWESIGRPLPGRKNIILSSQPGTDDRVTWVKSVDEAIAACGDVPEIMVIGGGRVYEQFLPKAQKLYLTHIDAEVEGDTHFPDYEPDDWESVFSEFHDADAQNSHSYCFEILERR

[2] = target: T2, Thymidylate synthase (EC 2.1.1.45) (TS) (TSase) (Escherichia coli, UniProt E2QDN0); assay: Inhibition of Escherichia coli TS assessed as oxidation of tetrahydrofolate to dihydrofolate after 2 to 12 mins by spectrophotometry
T2 sequence (E2QDN0 whole entry): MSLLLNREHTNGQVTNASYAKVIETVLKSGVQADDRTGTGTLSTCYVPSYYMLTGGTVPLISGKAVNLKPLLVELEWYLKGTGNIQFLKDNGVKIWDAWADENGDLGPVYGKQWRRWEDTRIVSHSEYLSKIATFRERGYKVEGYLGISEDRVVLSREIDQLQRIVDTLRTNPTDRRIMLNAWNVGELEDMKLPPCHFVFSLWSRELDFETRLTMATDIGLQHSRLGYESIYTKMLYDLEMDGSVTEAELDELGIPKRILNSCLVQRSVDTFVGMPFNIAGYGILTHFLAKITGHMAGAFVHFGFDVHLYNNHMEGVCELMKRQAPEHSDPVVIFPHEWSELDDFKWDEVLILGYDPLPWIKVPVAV

[3] = target: T3, Thymidylate synthase (Homo sapiens, UniProt P04818); assay: Ratio of premetrexed IC50 to compound IC50 for human TS
Target sequence in this assay (P04818 2-313 limits assumed): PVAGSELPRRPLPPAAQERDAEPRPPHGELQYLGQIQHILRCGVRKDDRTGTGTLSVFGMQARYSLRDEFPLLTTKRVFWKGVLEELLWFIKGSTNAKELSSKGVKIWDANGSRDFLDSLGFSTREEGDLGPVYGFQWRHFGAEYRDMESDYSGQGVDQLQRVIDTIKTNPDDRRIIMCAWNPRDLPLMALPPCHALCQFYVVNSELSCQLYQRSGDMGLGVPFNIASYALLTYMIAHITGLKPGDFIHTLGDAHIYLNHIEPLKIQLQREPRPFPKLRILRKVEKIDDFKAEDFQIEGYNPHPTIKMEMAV

[4] = target: T4, Bifunctional dihydrofolate reductase-thymidylate synthase (Toxoplasma gondii, UniProt Q07422); assay: Inhibition of Toxoplasma gondii TS assessed as oxidation of tetrahydrofolate to dihydrofolate after 2 to 12 mins by spectrophotometry
T4 sequence (Q07422 whole entry): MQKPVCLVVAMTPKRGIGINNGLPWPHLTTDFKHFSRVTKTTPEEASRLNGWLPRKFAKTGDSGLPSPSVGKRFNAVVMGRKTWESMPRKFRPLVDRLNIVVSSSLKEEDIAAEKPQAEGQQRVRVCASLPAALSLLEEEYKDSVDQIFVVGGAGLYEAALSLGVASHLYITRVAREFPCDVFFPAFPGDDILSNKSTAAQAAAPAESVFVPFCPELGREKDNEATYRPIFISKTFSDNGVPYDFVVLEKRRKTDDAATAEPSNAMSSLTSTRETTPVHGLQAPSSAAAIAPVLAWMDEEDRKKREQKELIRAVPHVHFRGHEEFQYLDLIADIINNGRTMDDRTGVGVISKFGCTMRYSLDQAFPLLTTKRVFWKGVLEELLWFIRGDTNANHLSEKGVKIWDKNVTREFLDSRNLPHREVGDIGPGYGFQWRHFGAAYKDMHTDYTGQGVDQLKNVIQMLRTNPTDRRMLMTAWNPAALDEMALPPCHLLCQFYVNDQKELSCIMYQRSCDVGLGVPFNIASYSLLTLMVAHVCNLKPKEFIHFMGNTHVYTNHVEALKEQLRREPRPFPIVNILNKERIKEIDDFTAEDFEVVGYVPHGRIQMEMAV

[5] = target: T4, Bifunctional dihydrofolate reductase-thymidylate synthase; assay: Inhibition of Toxoplasma gondii DHFR by spectrophotometry
[6] = target: T5, Dihydrofolate reductase (Homo sapiens, UniProt P00374); assay: Inhibition of human DHFR by spectrophotometry
T5 sequence (P00374 whole entry): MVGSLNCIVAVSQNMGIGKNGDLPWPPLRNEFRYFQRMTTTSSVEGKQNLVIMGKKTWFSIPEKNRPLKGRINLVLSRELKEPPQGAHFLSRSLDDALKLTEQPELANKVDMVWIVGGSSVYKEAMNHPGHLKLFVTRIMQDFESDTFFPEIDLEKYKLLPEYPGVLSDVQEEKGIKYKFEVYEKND

[7] = target: T3, Thymidylate synthase; assay: Inhibition of human TS assessed as oxidation of tetrahydrofolate to dihydrofolate after 2 to 12 mins by spectrophotometry
Target sequence in this assay (P04818 whole entry): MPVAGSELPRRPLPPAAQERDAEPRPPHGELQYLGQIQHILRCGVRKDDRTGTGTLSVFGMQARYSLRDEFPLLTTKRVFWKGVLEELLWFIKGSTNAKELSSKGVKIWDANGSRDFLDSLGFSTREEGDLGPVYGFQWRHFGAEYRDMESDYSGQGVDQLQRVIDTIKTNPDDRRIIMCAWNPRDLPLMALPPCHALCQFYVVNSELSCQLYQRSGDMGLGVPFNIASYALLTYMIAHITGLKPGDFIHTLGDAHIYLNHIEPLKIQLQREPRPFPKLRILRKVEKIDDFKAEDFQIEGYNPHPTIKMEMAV

## Nc1nc2sc3cccc(CNc4ccc(C(=O)N[C@@H](CCC(=O)O)C(=O)O)cc4)c3c2c(=O)[nH]1
[1]
  IC50: 0.4 µM
[2]
  IC50: 17 nM
[3]
  Ratio IC50: 50
[4]
  IC50: 140 nM
[5]
  IC50: 20 nM
[6]
  IC50: 90 nM
[7]
  IC50: 68 nM

## Cc1nc2sc3cccc(CNc4ccc(C(=O)N[C@@H](CCC(=O)O)C(=O)O)cc4)c3c2c(=O)[nH]1
[1]
  IC50: 15 µM
[2]
  IC50: 820 nM
[3]
  Ratio IC50: 50
[4]
  IC50: 1700 nM
[5]
  IC50: 1400 nM
[6]
  IC50: > 20000 nM
[7]
  IC50: 260 nM

## Cc1[nH]c2nc(N)[nH]c(=O)c2c1Sc1ccc(C(=O)N[C@@H](CCC(=O)O)C(=O)O)cc1
[1]
  IC50: 22 µM
[4]
  IC50: 90 nM
[5]
  IC50: 230 nM

## Cc1nc2ccc3ccc(CNc4ccc5c(c4)CN([C@@H](CCC(=O)O)C(=O)O)C5=O)cc3c2c(=O)[nH]1 [OSI-7904]
[1]
  IC50: 20 µM
[2]
  IC50: 23 nM
[4]
  IC50: 27 nM
[5]
  IC50: 710 nM
[6]
  IC50: > 20000 nM

## Nc1nc2sc3cccc(CNc4ccc5c(c4)CN([C@@H](CCC(=O)O)C(=O)O)C5=O)c3c2c(=O)[nH]1
[1]
  IC50: 0.4 µM
[2]
  IC50: 50 nM
[3]
  Ratio IC50: 50
[4]
  IC50: 170 nM
[5]
  IC50: 10 nM
[6]
  IC50: 100 nM
[7]
  IC50: 34 nM

## Cc1nc2sc3cccc(CNc4ccc5c(c4)CN([C@@H](CCC(=O)O)C(=O)O)C5=O)c3c2c(=O)[nH]1
[1]
  IC50: > 20 µM
[2]
  IC50: 850 nM
[3]
  Ratio IC50: 50
[4]
  IC50: 3700 nM
[5]
  IC50: 1800 nM
[6]
  IC50: > 20000 nM
[7]
  IC50: 800 nM

## Nc1nc2[nH]cc(CCc3ccc(C(=O)N[C@@H](CCC(=O)O)C(=O)O)cc3)c2c(=O)[nH]1 [PEMETREXED]
[2]
  IC50: 76000 nM
